Laboratory results published in patent publication US7973012B2, “C-phenyl glycitol compound” (Taisho Pharmaceutical Co., Ltd, priority 2006, dated 2011).

What was measured:
human SGLT1 = molecular target: T1, human SGLT1 (Homo sapiens, UniProt P13866); experiment: Inhibition test of sodium-dependent sugar uptake in CHO-k1 cells stably expressing human SGLT1; type: cell-based; details: for SGLT1 % inhibition at 100 nM: sugar uptake inhibition rate at 100 nM test compound vs control group; for IC50: CHO-k1 cells expressing human SGLT1, [14C]methyl α-D-glucopyranoside uptake, 37° C., 30 minutes
T1 construct: expressed in transfected cells; host or cells: CHO-k1
T1 sequence (P13866 1-664): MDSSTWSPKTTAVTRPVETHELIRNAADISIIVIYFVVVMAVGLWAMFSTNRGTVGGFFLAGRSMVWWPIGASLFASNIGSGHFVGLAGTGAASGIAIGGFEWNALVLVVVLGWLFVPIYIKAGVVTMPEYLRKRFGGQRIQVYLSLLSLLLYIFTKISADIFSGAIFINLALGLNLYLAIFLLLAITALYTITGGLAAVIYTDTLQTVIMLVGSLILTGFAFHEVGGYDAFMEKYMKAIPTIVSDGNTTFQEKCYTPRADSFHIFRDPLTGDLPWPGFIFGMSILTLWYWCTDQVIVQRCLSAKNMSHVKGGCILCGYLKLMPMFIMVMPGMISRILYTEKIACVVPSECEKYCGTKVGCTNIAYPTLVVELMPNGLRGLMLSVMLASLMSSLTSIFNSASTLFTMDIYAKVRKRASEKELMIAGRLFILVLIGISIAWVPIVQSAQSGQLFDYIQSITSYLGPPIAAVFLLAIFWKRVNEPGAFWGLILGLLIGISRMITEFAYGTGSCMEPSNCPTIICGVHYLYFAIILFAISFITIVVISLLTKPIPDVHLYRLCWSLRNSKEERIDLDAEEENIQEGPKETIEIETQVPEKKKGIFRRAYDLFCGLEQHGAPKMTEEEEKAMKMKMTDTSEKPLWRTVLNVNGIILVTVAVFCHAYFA
Experimental: (§1) An SGLT1 sequence (NM_000343) was reverse-transcripted from human small intestinal mRNA, then amplified, and then introduced into pCMV-tag5A from Stratagene Corporation. An SGLT2 sequence (NM_003041) was prepared from human nephric mRNA as with the above method, and then introduced into pcDNA3.1+hygro from Invitrogen Corporation. Each cloned sequence was confirmed to be identical with the reported sequence.
(§2) The human SGLT1 and human SGLT2 expression vectors were transfected into CHO-k1 cells by using Lipofectamine 2000 from Invitrogen Corporation. The SGLT expression cells were incubated in the presence of Geneticin (SGLT1) or Hygromycin B (SGLT2) at a 500 μg/mL concentration to select resistant strains, and specific activity of sugar uptake was obtained as an indicator by the following system.
(§3) Cells stably expressing human SGLT1 and human SGLT2 were used for the inhibition test of sodium-dependent glucose uptake.
(§4) The cells were incubated in a pretreatment buffer A (200 μL for SGLT1, and 2 mL for SGLT2) for 20 minutes. The pretreatment buffer was removed and an uptake buffer B (75 μL for SGLT1, and 200 μL for SGLT2) containing a test compound was added to conduct an uptake reaction at 37° C. for 30 minutes (SGLT1) or an hour (SGLT2). After the reaction, the cells were washed with a washing buffer C twice (200 μL for SGLT1, and 2 mL for SGLT2), and then dissolved in a 0.2 M solution of NaOH (75 μL for SGLT1, and 400 μL for SGLT2). After a liquid scintilater was added thereto and mixed sufficiently, radioactivity was measured with microBETA (SGLT1) or a liquid scintillation counter from Beckman Coulter, Inc (SGLT2). As a control group, an uptake buffer containing no test compound was prepared. In addition, as the basic uptake buffer, an uptake buffer B containing choline chloride instead of NaCl was prepared. • A pretreatment buffer A: 140 mM choline chloride, 2 mM KCl, 1 mM CaCl2, 1 mM MgCl2, 10 mM HEPES/5 mM Tris, pH 7.4. • An uptake buffer B: 1 mM of methyl α-D-glucopyranoside containing [^14C]methyl α-D-glucopyranoside, 140 mM NaCl, 2 mM KCl, 1 mM CaCl2, 1 mM MgCl2, 10 mM HEPES/5 mM Tris, pH 7.4. • A washing buffer C: 10 mM methyl α-D-glucopyranoside, 140 mM choline chloride, 2 mM KCl, 1 mM CaCl2, 1 mM MgCl2, 10 mM HEPES/5 mM Tris, pH 7.4.
(§5) In order to obtain IC50 values, test compounds having adequate 6 concentrations were used and the test compound concentrations (IC50 values) at which sugar uptake is inhibited by 50% in comparison with the amount of sugar uptake (100%) of the control group were calculated.
(§6) In addition, the sugar uptake inhibition rates at 100 nM concentration of the test compound in comparison with the control group are shown in Table 7.

human SGLT2 = molecular target: T2, human SGLT2 (Homo sapiens, UniProt P31639); experiment: Inhibition test of sodium-dependent sugar uptake in CHO-k1 cells stably expressing human SGLT2; type: cell-based; details: for SGLT2 % inhibition at 100 nM: sugar uptake inhibition rate at 100 nM test compound vs control group; for IC50: CHO-k1 cells expressing human SGLT2, [14C]methyl α-D-glucopyranoside uptake, 37° C., an hour
T2 construct: expressed in transfected cells; host or cells: CHO-k1
T2 sequence (P31639 1-672): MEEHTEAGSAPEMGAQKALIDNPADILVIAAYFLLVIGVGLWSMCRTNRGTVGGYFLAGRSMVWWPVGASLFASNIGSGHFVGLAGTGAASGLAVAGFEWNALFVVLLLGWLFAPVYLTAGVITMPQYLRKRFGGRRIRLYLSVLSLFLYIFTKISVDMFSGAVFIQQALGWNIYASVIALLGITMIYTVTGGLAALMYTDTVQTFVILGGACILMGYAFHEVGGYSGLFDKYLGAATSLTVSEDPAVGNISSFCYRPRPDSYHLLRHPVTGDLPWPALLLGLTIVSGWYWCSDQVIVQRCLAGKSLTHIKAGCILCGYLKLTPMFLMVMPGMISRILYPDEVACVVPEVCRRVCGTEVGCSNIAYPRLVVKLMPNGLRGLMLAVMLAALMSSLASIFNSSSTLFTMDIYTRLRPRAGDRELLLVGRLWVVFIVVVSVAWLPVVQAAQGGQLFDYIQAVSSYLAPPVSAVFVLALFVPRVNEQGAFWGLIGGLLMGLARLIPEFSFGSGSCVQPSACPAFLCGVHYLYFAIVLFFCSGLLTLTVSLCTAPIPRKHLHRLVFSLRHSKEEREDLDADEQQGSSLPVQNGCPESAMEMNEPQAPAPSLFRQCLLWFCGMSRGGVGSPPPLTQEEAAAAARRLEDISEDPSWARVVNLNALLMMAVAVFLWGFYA
Experimental: as §1, §2, §3, §4, §5, §6

Row | SMILES | SGLT1 % inhibition at 100 nM (human SGLT1) [%] | SGLT2 % inhibition at 100 nM (human SGLT2) [%] | IC50 (human SGLT1) [nM] | IC50 (human SGLT2) [nM]
1 | Cc1cc(O)c([C@@H]2O[C@H](CO)[C@@H](O)[C@H](O)[C@H]2O)cc1Cc1ccc(CCNC(=O)NCCc2ccccc2)cc1 [Compound 71] | 59 | 86 |  | 
2 | Cc1cc(O)c([C@@H]2O[C@H](CO)[C@@H](O)[C@H](O)[C@H]2O)cc1Cc1ccc(CCNC(=O)NCc2ccccc2)cc1 [Compound 68] | 60 | 83 |  | 
3 | Cc1cc(O)c([C@@H]2O[C@H](CO)[C@@H](O)[C@H](O)[C@H]2O)cc1Cc1ccc(CCNC(=O)NCc2cc(Cl)cc(Cl)c2)cc1 [Compound 27] |  |  | 54 | 15
4 | COC(=O)CNC(=O)NCCc1ccc(Cc2cc([C@@H]3O[C@H](CO)[C@@H](O)[C@H](O)[C@H]3O)c(O)cc2C)cc1 [Compound 21] |  |  | 75 | 34
5 | Cc1cc(O)c([C@@H]2O[C@H](CO)[C@@H](O)[C@H](O)[C@H]2O)cc1Cc1ccc(CCNC(=O)N2CCC(C)CC2)cc1 [Compound 36] |  |  | 94 | 34
6 | CCCN(CC1CC1)C(=O)NCCc1ccc(Cc2cc([C@@H]3O[C@H](CO)[C@@H](O)[C@H](O)[C@H]3O)c(O)cc2C)cc1 [Compound 25] |  |  | 64 | 20
7 | Cc1cc(O)c([C@@H]2O[C@H](CO)[C@@H](O)[C@H](O)[C@H]2O)cc1Cc1ccc(CCNC(=O)NC2CCN(Cc3ccccc3)CC2)cc1 [Compound 33] |  |  | 12 | 11
8 | CCC(CO)NC(=O)NCCc1ccc(Cc2cc([C@@H]3O[C@H](CO)[C@@H](O)[C@H](O)[C@H]3O)c(O)cc2C)cc1 (stereo partly drawn) [Compound 50] | 71 | 77 |  | 
9 | Cc1cc(O)c([C@@H]2O[C@H](CO)[C@@H](O)[C@H](O)[C@H]2O)cc1Cc1ccc(CCNC(=O)NC2Cc3ccccc3C2)cc1 [Compound 138] | 65 | 84 |  | 
10 | COC(=O)[C@H](Cc1ccccc1)NC(=O)NCCc1ccc(Cc2cc([C@@H]3O[C@H](CO)[C@@H](O)[C@H](O)[C@H]3O)c(O)cc2C)cc1 [Compound 22] |  |  | 37 | 12
11 | COc1cccc(CCNC(=O)NCCc2ccc(Cc3cc([C@@H]4O[C@H](CO)[C@@H](O)[C@H](O)[C@H]4O)c(O)cc3C)cc2)c1 [Compound 51] | 71 | 84 |  | 
12 | Cc1cc(O)c([C@@H]2O[C@H](CO)[C@@H](O)[C@H](O)[C@H]2O)cc1Cc1ccc(CCNC(=O)NC(C)(C)C)cc1 [Compound 39] | 80 | 83 |  | 
13 | Cc1cc(O)c(C2OC(CO)C(O)C(O)C2O)cc1Cc1ccc(CCNC(=O)NC(CO)CC(C)C)cc1 (stereo not drawn) [Compound 46] | 74 | 91 |  | 
14 | Cc1cc(O)c([C@@H]2O[C@H](CO)[C@@H](O)[C@H](O)[C@H]2O)cc1Cc1ccc(CCNC(=O)NC2CN3CCC2CC3)cc1 (stereo partly drawn) [Compound 34] |  |  | 49 | 10
15 | Cc1cc(O)c([C@@H]2O[C@H](CO)[C@@H](O)[C@H](O)[C@H]2O)cc1Cc1ccc(CCNC(=O)NC(Cc2ccccc2)C(N)=O)cc1 (stereo partly drawn) [Compound 60] | 66 | 91 |  | 
16 | Cc1cc(O)c([C@@H]2O[C@H](CO)[C@@H](O)[C@H](O)[C@H]2O)cc1Cc1ccc(CCNC(=O)NCCc2ccc(F)cc2)cc1 [Compound 52] | 71 | 84 |  | 
17 | Cc1cc(O)c([C@@H]2O[C@H](CO)[C@@H](O)[C@H](O)[C@H]2O)cc1Cc1ccc(CCNC(=O)N[C@@H](CC(C)C)C(N)=O)cc1 [Compound 24] |  |  | 37 | 25
18 | Cc1cc(O)c(C2OC(CO)C(O)C(O)C2O)cc1Cc1ccc(CCNC(=O)NC2CC3CCC2C3)cc1 (mixture of isomers) [Compound 124] | 71 | 79 |  | 
19 | Cc1cc(O)c([C@@H]2O[C@H](CO)[C@@H](O)[C@H](O)[C@H]2O)cc1Cc1ccc(CCNC(=O)NCCc2ccc(O)cc2)cc1 [Compound 63] | 63 | 81 |  | 
20 | Cc1cc(O)c([C@@H]2O[C@H](CO)[C@@H](O)[C@H](O)[C@H]2O)cc1Cc1ccc(CCNC(=O)NCC2OCCO2)cc1 [Compound 64] | 62 | 76 |  | 
21 | Cc1cc(O)c([C@@H]2O[C@H](CO)[C@@H](O)[C@H](O)[C@H]2O)cc1Cc1ccc(CCNC(=O)N[C@@H](Cc2ccccc2)C(N)=O)cc1 [Compound 40] | 79 | 89 |  | 
22 | Cc1cc(O)c([C@@H]2O[C@H](CO)[C@@H](O)[C@H](O)[C@H]2O)cc1Cc1ccc(CCNC(=O)NCC2CCCO2)cc1 (stereo partly drawn) [Compound 65] | 62 | 76 |  | 
23 | Cc1cc(O)c([C@@H]2O[C@H](CO)[C@@H](O)[C@H](O)[C@H]2O)cc1Cc1ccc(CCNC(=O)NCCN2CCCCC2)cc1 [Compound 67] | 61 | 82 |  | 
24 | Cc1cc(O)c(C2OC(CO)C(O)C(O)C2O)cc1Cc1ccc(CCNC(=O)NC2CCN(Cc3ccccc3)C2)cc1 (mixture of isomers) [Compound 132] | 90 | 90 |  | 
